# Test results taken from patent publication US20060069110A1, “Substituted heterocyclic compounds and methods of use” (priority 2004, published 2006).
# System: THP1 cells (LPS induced TNF release)
# Test: Lipopolysaccharide-Activated THP1 Cell TNF Production Assay
# Assay type: cell-based
# Conditions: Homo sapiens, THP-1, 3 h, read-out: IC50 values in the THP1 cell assay (LPS induced TNF release)
# Experimental: Lipopolysaccharide-Activated THP1 Cell TNF Production Assay
# THP1 cells are resuspended in fresh THP1 media (RPMI 1640, 10% heat-inactivated FBS, 1×PGS, 1×NEAA, plus 30 μM βME) at a concentration of 1E6/mL. One hundred microliters of cells per well are plated in a polystyrene 96-well tissue culture. One microgram per mL of bacterial LPS is prepared in THP1 media and is transferred to the wells. Test compounds are dissolved in 100% DMSO and are serially diluted 3 fold in a polypropylene 96-well microtiter plate (drug plate). HI control and LO control wells contain only DMSO. One microliter of test compound from the drug plate followed by 10 μL of LPS are transferred to the cell plate. The treated cells are induced to synthesize and secrete TNF-α at 37° C. for 3 h. Forty microliters of conditioned media are transferred to a 96-well polypropylene plate containing 110 μL of ECL buffer (50 mM Tris-HCl pH 8.0, 100 mM NaCl, 0.05% Tween 20, 0.05% NaN3 and 1% FBS) supplemented with 0.44 nM MAB610 monoclonal Ab (R&D Systems), 0.34 nM ruthenylated AF210NA polyclonal Ab (R&D Systems) and 44 μg/mL sheep anti-mouse M280 Dynabeads (Dynal). After a 2 h incubation at RT with shaking, the reaction is read on the ECL M8 Instrument (IGEN Inc.). A low voltage is applied to the ruthenylated TNF-α immune complexes, which in the presence of TPA (the active component in Origlo), results in a cyclical redox reaction generating light at […]. The amount of secreted TNF-α in the presence of compound compared with that in the presence of DMSO vehicle alone (HI control) is calculated using the formula: % control (POC)=(cpd−average LO)/(average HI−average LO)*100. Data (consisting of POC and inhibitor concentration in μM) is fitted to a 4-parameter equation (y=A+((B−A)/(1+((×/C)ôD))), where A is the minimum y (POC) value, B is the maximum y (POC), C is the x (cpd concentration) at the point of inflection and D is the slope factor) using a Levenburg-Marquardt non-linear regression algorithm.
row,Compound,IC50 [µM]
1,"Cc1nccn1-c1cccc(C[C@H](C)Nc2nccc(N(C)c3ccnc(-c4ccccc4)n3)n2)c1 [Example 117, N^4-Methyl-N^2-((S)-1-(3-(2-methyl-1H-imidazol-1-yl)phenyl)propan-2-yl)-N^4-(2-phenylpyrimidin-4-yl)pyrimidine-2,4-diamine]",≤ 20

# Same assay, conditions: Homo sapiens, THP-1; THP1 cells, bacterial LPS, secreted TNF-α after 3 h at 37° C.; read-out: IC50 values in the THP1 cell assay (LPS induced TNF release)
row,IC50 [µM],Compound
1,≤ 20,"CN(c1ccnc(NCCc2cccnc2)n1)c1ccnc(-c2ccc(F)cc2F)n1 [Example 77, N^4-(2-(2,4-Difluorophenyl)pyrimidin-4-yl)-N^4-methyl-N^2-(2-(pyridin-3-yl)ethyl)-pyrimidine-2,4-diamine]"
2,≤ 20,"CC(Cc1cccc(CN)c1)Nc1nccc(N(C)c2cccc(-c3cccc(F)c3)n2)n1 (stereo not shown) [Example 157, N^2-(1-(3-(Aminomethyl)phenyl)propan-2-yl)-N^4-(6-(3-fluorophenyl)pyridin-2-yl)-N^4-methylpyrimidine-2,4-diamine]"
3,≤ 20,"CC(Cc1cccc(CO)c1)Nc1nccc(N(C)c2cccc(-c3cccc(F)c3)n2)n1 (stereo not shown) [Example 156, (3-(2-(4-((6-(3-Fluorophenyl)pyridin-2-yl)(methyl)amino)pyrimidin-2-ylamino)propyl)phenyl)methanol]"
4,≤ 20,"CN(c1cccc(-c2ccccc2Cl)n1)c1ccnc(NCCc2ccccc2)n1 [Example 136, N^4-(6-(2-Chlorophenyl)pyridin-2-yl)-N^4-methyl-N^2-phenethylpyrimidine-2,4-diamine]"
5,≤ 20,"COc1ncc(N(C)c2ccnc(NCCc3ccccc3)n2)cc1-c1ccccc1 [Example 172, N^4-(6-Methoxy-5-phenylpyridin-3-yl)-N^4-methyl-N^2-phenethylpyrimidine-2,4-diamine]"
6,≤ 20,"CN(c1ccnc(N[C@@H](CNCCN)Cc2ccccc2)n1)c1ccnc(-c2ccccc2)n1 [Example 50, (R)-N^2-(3-(2-Aminoethylamino)-1-phenylpropan-2-yl)-N^4-methyl-N^4-(2-phenyl-pyrimidin-4-yl)pyrimidine-2,4-diamine]"
7,≤ 20,"C[C@H](Nc1nccc(N(C)c2ccnc(-c3ccccc3)n2)n1)c1ccc(CCN)cc1 [Example 3, (S)-N^2-(1-(4-(2-Aminoethyl)phenyl)ethyl)-N^4-methyl-N^4-(2-phenylpyrimidin-4-yl)pyrimidine-2,4-diamine]"
8,≤ 20,"Cc1cc(N(C)c2ccnc(-c3ccccc3)n2)nc(N[C@@H](C)Cc2cccc([C@@H](C)N)c2)n1 [Example 36, N^2-((S)-1-(3-((R)-1-Aminoethyl)phenyl)propan-2-yl)-N^4,6-dimethyl-N^4-(2-phenylpyrimidin-4-yl)pyrimidine-2,4-diamine]"
9,≤ 20,C[C@H](N)C(=O)N1CCC(Nc2nccc(N(C)c3ccnc(-c4ccccc4)n3)n2)CC1 [Example 23]
10,≤ 20,"CN(c1cncc(-c2ccccc2)n1)c1ccnc(N[C@H]2CC[C@H](N)CC2)n1 [Example 124, N^2-((1r, 4r)-4-Aminocyclohexyl)-N^4-methyl-N^4-(6-phenylpyrazine-2-yl)pyrimidine-2,4-diamine]"
11,≤ 20,"CN(c1ccnc(NCCc2ccccc2Cl)n1)c1nccc(C(C)(C)C)n1 [Example 55, N^2-(2-Chlorophenethyl)-N^4-(4-tert-butylpyrimidin-2-yl)-N^4-methylpyrimidine-2,4-diamine]"
12,≤ 20,"CC(=O)N1CCC(CNc2nccc(N(C)c3ccnc(-c4ccccc4)n3)n2)CC1 [Example 115, 1-(4-((4-(Methyl(2-phenylpyrimidin-4-yl)amino)pyrimidin-2-ylamino)methyl)-piperidin-1-yl)ethanone]"
13,≤ 20,"C[C@H](NC(=O)OC(C)(C)C)c1ccc(CCNc2nccc(N(C)c3ccnc(-c4ccccc4)n3)n2)cc1 [Example 4, (S)-tert-Butyl 1-(4-(2-(4-(methyl(2-phenylpyrimidin-4-yl)amino)pyrimidin-2-ylamino)ethyl)phenyl)ethyl carbamate]"
14,≤ 20,"CN(c1ccnc(NCCc2cccc(-c3ccccn3)c2)n1)c1ccnc(-c2ccccc2)n1 [Example 118, N^2-(3-(Pyridin-2-yl)phenethyl)-N^4-methyl-N^4-(2-phenylpyrimidin-4-yl)pyrimidine-2,4-diamine]"
15,≤ 20,"C[C@@H](Cc1cccc(CN)c1)Nc1nccc(N(C)c2cc(-c3ccccc3)c(=O)n(C)c2)n1 [Example 178, (S)-5-((2-(1-(3-(Aminomethyl)phenyl)propan-2-ylamino)pyrimidin-4-yl)(methyl)-amino)-1-methyl-3-phenylpyridin-2(1H)-one]"
16,≤ 20,"Cc1cccc(-c2cccc(N(C)c3ccnc(NCCc4ccccc4)n3)n2)c1 [Example 138, N^4-Methyl-N^2-phenethyl-N^4-(6-m-tolylpyridin-2-yl)-pyrimidine-2,4-diamine]"
17,≤ 20,"C[C@@H](Cc1cccc(C2(N)CC2)c1)Nc1nccc(N(C)c2ccnc(-c3ccccc3)n2)n1 [Example 7, (S)-N^2-(1-(3-(1-Aminocyclopropyl)phenyl)propan-2-yl)-N^4-methyl-N^4-(2-phenylpyrimidin-4-yl)pyrimidine-2,4-diamine]"
18,≤ 20,"CN(c1ccnc(NCCc2ccccc2)n1)c1nccc(C(C)(C)C)n1 [Example 186, N^4-(4-tert-Butylpyrimidin-2-yl)-N^4-methyl-N^2-phenethylpyrimidine-2,4-diamine]"
19,≤ 20,"C[C@@H](Cc1cccc(CN)c1)Nc1nccc(N(C)c2c[nH]c(=O)c(-c3ccccc3)c2)n1 [Example 168, (S)-5-((2-(1-(3-(Aminomethyl)phenyl)propan-2-ylamino)pyrimidin-4-yl)(methyl)-amino)-3-phenylpyridin-2(1H)-one]"
20,≤ 20,"CN(c1ccnc(NCCc2ccccn2)n1)c1ccnc(-c2ccccc2)n1 [Example 107, N^4-Methyl-N^4-(2-phenylpyrimidin-4-yl)-N^2-(2-(pyridin-2-yl)ethyl)pyrimidine-2,4-diamine]"
21,≤ 20,"C[C@@H](Cc1cccc(CN)c1)Nc1nccc(N(C)c2ccnc(-c3ccc(F)cc3)n2)n1 [Example 87, (S)-N^2-(1-(3-(Aminomethyl)phenyl)propan-2-yl)-N^4-(2-(4-fluorophenyl)pyrimidin-4-yl)-N^4-methylpyrimidine-2,4-diamine]"
22,≤ 20,"CN(c1ccnc(NCC(c2cccnc2)N2CCOCC2)n1)c1ccnc(-c2ccccc2)n1 (stereo not shown) [Example 108, N^4-Methyl-N^2-(2-morpholino-2-(pyridin-3-yl)ethyl)-N^4-(2-phenylpyrimidin-4-yl)pyrimidine-2,4-diamine]"
23,≤ 20,"CN(c1ccnc(NCCc2cccnc2)n1)c1ccnc(-c2cccs2)n1 [Example 79, N^4-Methyl-N^2-(2-(pyridin-3-yl)ethyl)-N^4-(2-(thiophen-2-yl)pyrimidin-4-yl)-pyrimidine-2,4-diamine]"
24,≤ 20,"Clc1ccccc1CCNc1nccc(Nc2cc(-c3ccccc3)c(Cl)nn2)n1 [Example 183, N^2-(2-Chlorophenethyl)-N4-(6-chloro-5-phenylpyridazin-3-yl)pyrimidine-2,4-di-amine]"
25,≤ 20,"C[C@H](N)C(=O)N[C@H]1CC[C@H](Nc2nccc(N(C)c3ccnc(-c4ccccc4)n3)n2)CC1 [Example 25, (S)-2-Amino-N-(4-(4-(methyl(2-phenylpyrimidin-4-yl)amino)pyrimidin-2-ylamino)cyclohexyl)propanamide]"
26,≤ 20,"CC(C)NC[C@@H](Cc1ccccc1)Nc1nccc(N(C)c2ccnc(-c3ccccc3)n2)n1 [Example 49, (R)-N^2-(3-(Isopropylamino)-1-phenylpropan-2-yl)-N^4-methyl-N^4-(2-phenyl-pyrimidin-4-yl)pyrimidine-2,4-diamine]"
27,≤ 20,"CN(c1ccnc(NCCc2cccnc2)n1)c1ccnc(-c2ccccc2F)n1 [Example 71, N^4-(2-(2-Fluorophenyl)pyrimidin-4-yl)-N^4-methyl-N^2-(2-(pyridin-3-yl)ethyl)-pyrimidine-2,4-diamine]"
28,≤ 20,"CN(c1ccnc(NCCN2CCOCC2)n1)c1ccnc(-c2ccccc2)n1 [Example 96, N^4-Methyl-N^2-(2-morpholinoethyl)-N^4-(2-phenylpyrimidin-4-yl)pyrimidine-2,4-diamine]"
29,≤ 20,"Cn1c(Nc2ccnc(NCCc3ccccc3Cl)n2)cc(-c2ccccc2)cc1=O [Example 160, 6-(2-(2-Chlorophenethylamino)pyrimidin-4-ylamino)-1-methyl-4-phenylpyridin-2(1H)-one]"
30,≤ 20,Cc1nccn1-c1nccc(N(C)c2ccnc(-c3ccccc3)n2)n1 [N-methyl-N-(2-(2-methyl-1H-imidazol-1-yl)pyrimidin-4-yl)-2-phenylpyrimidin-4-amine]
